The values below are quoted from earlier work in US11021501B2, “Creatine phosphate analog prodrugs, compositions and methods of use thereof” (Farmington Pharma Development, priority 2015, dated 2021).

Read-outs that look alike come from different tables or passages of the source.

Series [1] deals with creatine phosphate levels.
For series [2] the following is noted: animals fed a diet containing up to 1%.

For `CN(CC(=O)O)C(=N)NP(=O)(O)O` [Creatine phosphate, creatine phosphate], the adverse side effects entry (patients with cardiac diseases, intravenous injection up to 8 gm/day) is “without adverse side effects”.

On to `CN(CC(=O)O)C(=N)N.O` [creatine monohydrate], for which, under “athletes and body builders, 2-3 gm/day”, the adverse side effects result was “without adverse side effects”.

Regarding `CN(CC(=O)O)C(=N)N` [creatine], the “overall increase of creatine phosphate levels” value in series [1] (creatine supplementation over weeks) is listed as below 50%. In addition, the “duration of increase in tissue creatine phosphate levels” value in series [1] (following oral creatine supplementation) is above 14 days. Also, the “increase of cerebral creatine phosphate” value in series [1] (healthy volunteers, oral creatine administration) is listed as “about 10%”.

As for `NC1=NCCN1CC(=O)O` [cyclocreatine], the adverse effects entry in series [2] was “do not exhibit adverse effects”.
